{"source": "paper PMC9747124", "about": "(Clinical and Translational Science, 2022)", "key": {"[1]": {"assay": "Population PK model of evobrutinib", "type": "in vivo, human", "conditions": "for Increase of bioavailability with food compared with when fasted: population PK model covariate effect"}, "[2]": {"tested_on": "patients with RMS", "type": "in vivo, human"}, "[3]": {"conditions": "data not shown for high-fat or moderate-fat meal; internal report; cited from earlier work"}, "[4]": {"tested_on": "patients with RMS", "conditions": "cited from earlier work; for Annualized relapse rate (ARR): 75 mg b.i.d."}, "[5]": {"tested_on": "patients with RMS", "conditions": "75 mg q.d. while fasted; over 24 weeks, maintained through week 48; cited from earlier work"}, "[6]": {"conditions": "between-participant variability, final PK model"}}, "note": "Like-named read-outs stand apart in the source and are kept apart here.", "data": [{"smiles": "C=CC(=O)N1CCC(CNc2ncnc(N)c2-c2ccc(Oc3ccccc3)cc2)CC1", "note": "[evobrutinib, Evobrutinib]", "values": [{"measurement": "Patients exceeding AUC0-24,SS > 400 ng/ml h", "setting": "[1]; 75 mg b.i.d. treatment arm in the phase II study", "value": "all patients"}, {"measurement": "ω^2 ALAG, Estimate (RSE %)", "setting": "[1]; [6]", "value": "0.317 (83.3)"}, {"measurement": "ω^2 CL/F, Estimate (RSE %)", "setting": "[1]; [6]", "value": "0.257 (18.1)"}, {"measurement": "ω^2 D1 fasted, Estimate (RSE %)", "setting": "[1]; [6]", "value": "0.784 (38.3)"}, {"measurement": "ω^2 D1 fed, Estimate (RSE %)", "setting": "[1]; [6]", "value": "0.784 (38.3)"}, {"measurement": "ω^2 Q/F, Estimate (RSE %)", "setting": "[1]; [6]", "value": "1.25 (18.2)"}, {"measurement": "ω^2 V2/F, Estimate (RSE %)", "setting": "[1]; [6]", "value": "0.566 (32.9)"}, {"measurement": "ω^2 V3/F, Estimate (RSE %)", "setting": "[1]; [6]", "value": "1.82 (15.2)"}, {"measurement": "Cov CL/F + ALAG, Estimate (RSE %)", "setting": "[1]; covariance, final PK model", "value": "0.0572 (120)"}, {"measurement": "Cov Q/F + V3/F, Estimate (RSE %)", "setting": "[1]; covariance, final PK model", "value": "1.09 (17.3)"}, {"measurement": "Residual variability: Additive error", "setting": "[1]; final PK model", "value": 0.272, "unit": "ng/mL"}, {"measurement": "Residual variability: Proportional error", "setting": "[1]; final PK model", "value": 0.509}, {"measurement": "ALAG (lag time)", "setting": "[1]; final PK model, week 48", "value": 0.197, "unit": "h"}, {"measurement": "K a (absorption rate constant)", "setting": "[1]; final PK model, week 48", "value": 0.793, "unit": "h⁻¹"}, {"measurement": "V3/F (apparent volume of distribution of the peripheral compartment)", "setting": "[1]; final PK model, week 48", "value": 385, "unit": "L"}, {"measurement": "CL/F (apparent clearance)", "setting": "[1]; final PK model, week 48, value for healthy participants", "value": 269, "unit": "L/h"}, {"measurement": "Vd/F", "setting": "[1]; human, in vivo", "value": 50.8, "unit": "L"}, {"measurement": "AUC(0-t)", "setting": "[1]; human, in vivo, 75 mg", "value": 0.835, "unit": "µg·h/mL"}, {"measurement": "Cmax", "setting": "[1]; human, in vivo, 75 mg", "value": 0.168, "unit": "µg/mL"}, {"measurement": "Increase of bioavailability with food compared with when fasted", "setting": "[1]", "value": "about 50%"}, {"measurement": "Increase of bioavailability with food compared with when fasted", "setting": "[1]; listed as Evobrutinib", "value": 49, "unit": "%"}, {"measurement": "exp(B1), level of ARR for high values of the AUC", "setting": "[2]; ARR versus exposure model estimate", "value": 0.11}, {"measurement": "Mean ARR", "setting": "[2]; highest three exposure quintiles (starting at an AUC of 356 ng/ml h)", "value": "≤ 0.14"}, {"measurement": "Increase of bioavailability by dosing with food", "setting": "[3]", "value": "about 50%"}, {"measurement": "Clinical efficacy on any end points compared with placebo", "setting": "[4]; 25 mg q.d.", "value": "did not show clinical efficacy"}, {"measurement": "Annualized relapse rate (ARR)", "setting": "[4]; 48-week double-blind period", "value": 0.11}, {"measurement": "Annualized relapse rate (ARR)", "setting": "[4]; 108-week period (48-week double-blind plus 60-week open-label extension)", "value": 0.12}, {"measurement": "Total cumulative number of T1 Gd+ lesions compared with placebo", "setting": "[5]", "value": "reduction"}]}]}
